Measured values reported in patent publication US20230143604A1, “QW DOSING OF GIP RECEPTOR AGONIST PEPTIDE COMPOUNDS AND USES THEREOF” (TAKEDA PHARMACEUTICAL COMPANY LIMITED, priority 2020, published 2023).
Starred links: 1 amine or outer side, 2 acyl side, 3 side chain; linkers in the order of their positions; H or OH if unused. Non-standard residues stand in square brackets, D forms with d. Residues, ends and D or L forms follow the SMILES beside them. Groups on a side chain read outwards from the residue. *: point of attachment. C18 diacid = O=C(O)CCCCCCCCCCCCCCCCC(=O)*; γGlu = O=C(O)[C@H](CCC(=O)[*:2])N[*:1]; NMeY = CN[C@@H](Cc1ccc(O)cc1)C(=O)O; AEEA = NCCOCCOCC(=O)O; Aib = CC(C)(N)C(=O)O

Test: physchem
Outline: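 3 mg of peptide treated with 100 μL portions of 200 mM phosphate buffer pH 7.4, sonicating/vortexing up to 1 min, with further buffer added until fully dissolved. Solubility then quantified by HPLC.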

SMILES | solubility (pH 7.4) [µg/mL] | solubility (pH 7.4, aqueous buffer) [µg/mL]
CC[C@H](C)[C@H](NC(=O)[C@H](CO)NC(=O)[C@H](Cc1ccc(O)cc1)NC(=O)[C@H](CC(=O)O)NC(=O)[C@H](CO)NC(=O)[C@@H](NC(=O)[C@H](Cc1ccccc1)NC(=O)[C@@H](NC(=O)CNC(=O)[C@H](CCC(=O)O)NC(=O)C(C)(C)NC(=O)[C@H](Cc1ccc(O)cc1)NC)[C@@H](C)O)[C@@H](C)CC)C(=O)N[C@@H](C)C(=O)N[C@@H](CC(C)C)C(=O)N[C@@H](CC(=O)O)C(=O)N[C@@H](CCCNC(=N)N)C(=O)N[C@@H](C)C(=O)N[C@@H](C)C(=O)N[C@@H](CCC(N)=O)C(=O)N[C@@H](CCC(N)=O)C(=O)N[C@@H](CCCCNC(=O)COCCOCCNC(=O)COCCOCCNC(=O)CC[C@H](NC(=O)CC[C@H](NC(=O)CCCCCCCCCCCCCCCCC(=O)O)C(=O)O)C(=O)O)C(=O)N[C@@H](Cc1ccccc1)C(=O)N[C@H](C(=O)N[C@@H](CC(N)=O)C(=O)N[C@@H](Cc1c[nH]c2ccccc12)C(=O)N[C@@H](CC(C)C)C(=O)N[C@@H](CC(C)C)C(=O)N[C@@H](C)C(=O)N[C@@H](CCC(N)=O)C(=O)N[C@@H](CO)C(=O)N1CCC[C@H]1C(=O)NCC(=O)O)C(C)C [Compound 178] (H-[NMeY][Aib]EGTFISDYSIALDRAAQQK([AEEA-AEEA-γGlu-γGlu-C18 diacid])FVNWLLAQSPG-OH) | ≥ 15000 | ≥ 30000
CC[C@H](C)[C@H](NC(=O)[C@H](CCCNC(=N)N)NC(=O)[C@H](CC(=O)O)NC(=O)[C@H](CCCCNC(=O)CNC(=O)CNC(=O)CNC(=O)CNC(=O)CNC(=O)CCCCCCCCCCCCCCCCC(=O)O)NC(=O)[C@H](C)NC(=O)[C@@H](NC(=O)[C@H](CO)NC(=O)[C@H](Cc1ccc(O)cc1)NC(=O)[C@H](CC(=O)O)NC(=O)[C@H](CO)NC(=O)[C@@H](NC(=O)[C@H](Cc1ccccc1)NC(=O)[C@@H](NC(=O)CNC(=O)[C@H](CCC(=O)O)NC(=O)C(C)(C)NC(=O)[C@H](Cc1ccc(O)cc1)NC)[C@@H](C)O)[C@@H](C)CC)[C@@H](C)CC)C(=O)N[C@@H](C)C(=O)N[C@@H](CCC(N)=O)C(=O)N[C@@H](CCCNC(=N)N)C(=O)N[C@@H](CC(N)=O)C(=O)N[C@@H](Cc1ccccc1)C(=O)N[C@H](C(=O)N[C@@H](CCC(=O)O)C(=O)N[C@@H](Cc1c[nH]c2ccccc12)C(=O)N[C@@H](CC(C)C)C(=O)N[C@@H](CC(C)C)C(=O)N[C@@H](C)C(=O)N[C@@H](CCC(N)=O)C(=O)N[C@@H](CO)C(=O)N1CCC[C@H]1C(=O)NCC(=O)O)C(C)C [Compound 180] | ≥ 15000 | –
CC[C@H](C)[C@H](NC(=O)[C@H](CO)NC(=O)[C@H](Cc1ccc(O)cc1)NC(=O)[C@H](CC(=O)O)NC(=O)[C@H](CO)NC(=O)[C@@H](NC(=O)[C@H](Cc1ccccc1)NC(=O)[C@@H](NC(=O)CNC(=O)[C@H](CCC(=O)O)NC(=O)[C@@H](C)NC(=O)[C@H](Cc1ccc(O)cc1)NC)[C@@H](C)O)[C@@H](C)CC)C(=O)N[C@@H](C)C(=O)N[C@@H](CC(C)C)C(=O)N[C@@H](CC(=O)O)C(=O)N[C@@H](CCCNC(=N)N)C(=O)N[C@H](C(=O)N[C@@H](Cc1c[nH]cn1)C(=O)N[C@@H](CCC(N)=O)C(=O)N[C@@H](CCC(N)=O)C(=O)N[C@@H](CC(N)=O)C(=O)N[C@@H](Cc1ccccc1)C(=O)N[C@H](C(=O)N[C@@H](CC(N)=O)C(=O)N[C@@H](Cc1c[nH]c2ccccc12)C(=O)N[C@@H](CC(C)C)C(=O)N[C@@H](CC(C)C)C(=O)N[C@@H](C)C(=O)N[C@@H](CCC(N)=O)C(=O)N[C@@H](CCCCNC(=O)COCCOCCNC(=O)COCCOCCNC(=O)CC[C@H](NC(=O)CCCCCCCCCCCCCCCCC(=O)O)C(=O)O)C(=O)O)C(C)C)[C@@H](C)CC [Compound 243] (H-[NMeY][dA]EGTFISDYSIALDRIHQQNFVNWLLAQK([AEEA-AEEA-γGlu-C18 diacid])-OH; N-terminus and C-terminus assumed) | – | ≥ 7000
CC[C@H](C)[C@H](NC(=O)[C@H](CO)NC(=O)[C@H](Cc1ccc(O)cc1)NC(=O)[C@H](CC(=O)O)NC(=O)[C@H](CO)NC(=O)[C@@H](NC(=O)[C@H](Cc1ccccc1)NC(=O)[C@@H](NC(=O)CNC(=O)[C@H](CCC(=O)O)NC(=O)C(C)(C)NC(=O)[C@H](Cc1ccc(O)cc1)NC(C)=O)[C@@H](C)O)[C@@H](C)CC)C(=O)N[C@@H](C)C(=O)N[C@@H](CC(C)C)C(=O)N[C@@H](CC(=O)O)C(=O)N[C@@H](CCCNC(=N)N)C(=O)N[C@H](C(=O)N[C@@H](Cc1c[nH]cn1)C(=O)N[C@@H](CCC(N)=O)C(=O)N[C@@H](CCC(N)=O)C(=O)N[C@@H](CC(N)=O)C(=O)N[C@@H](Cc1ccccc1)C(=O)N[C@H](C(=O)N[C@@H](CC(N)=O)C(=O)N[C@@H](Cc1c[nH]c2ccccc12)C(=O)N[C@@H](CC(C)C)C(=O)N[C@@H](CC(C)C)C(=O)N[C@@H](C)C(=O)N[C@@H](CCC(N)=O)C(=O)N[C@@H](CCCCNC(=O)COCCOCCNC(=O)COCCOCCNC(=O)CC[C@H](NC(=O)CCCCCCCCCCCCCCCCC(=O)O)C(=O)O)C(=O)O)C(C)C)[C@@H](C)CC [Compound 244] (Ac-Y[Aib]EGTFISDYSIALDRIHQQNFVNWLLAQK([AEEA-AEEA-γGlu-C18 diacid])-OH; C-terminus assumed) | – | ≥ 9400
CC[C@H](C)[C@H](NC(=O)[C@H](CO)NC(=O)[C@H](Cc1ccc(O)cc1)NC(=O)[C@H](CC(=O)O)NC(=O)[C@H](CO)NC(=O)[C@@H](NC(=O)[C@H](Cc1ccccc1)NC(=O)[C@@H](NC(=O)CNC(=O)[C@H](CCC(=O)O)NC(=O)C(C)(C)NC(=O)[C@H](Cc1ccc(O)cc1)NC)[C@@H](C)O)[C@@H](C)CC)C(=O)N[C@@H](C)C(=O)N[C@@H](CCCCNC(=O)COCCOCCNC(=O)COCCOCCNC(=O)CC[C@H](NC(=O)CCCCCCCCCCCCCCCCC(=O)O)C(=O)O)C(=O)N[C@@H](CC(=O)O)C(=O)N[C@@H](CCCNC(=N)N)C(=O)N[C@H](C(=O)N[C@@H](Cc1c[nH]cn1)C(=O)N[C@@H](CCC(N)=O)C(=O)N[C@@H](CCC(N)=O)C(=O)N[C@@H](CC(N)=O)C(=O)N[C@@H](Cc1ccccc1)C(=O)N[C@H](C(=O)N[C@@H](CC(N)=O)C(=O)N[C@@H](Cc1c[nH]c2ccccc12)C(=O)N[C@@H](CC(C)C)C(=O)N[C@@H](CC(C)C)C(=O)N[C@@H](C)C(=O)N[C@@H](CCC(N)=O)C(=O)N[C@@H](CCCCN)C(=O)O)C(C)C)[C@@H](C)CC [Compound 245] (H-[NMeY][Aib]EGTFISDYSIAK([AEEA-AEEA-γGlu-C18 diacid])DRIHQQNFVNWLLAQK-OH; C-terminus assumed) | – | ≥ 7500
CC[C@H](C)[C@H](NC(=O)[C@H](CO)NC(=O)[C@H](Cc1ccc(O)cc1)NC(=O)[C@H](CC(=O)O)NC(=O)[C@H](CO)NC(=O)[C@@H](NC(=O)[C@H](Cc1ccccc1)NC(=O)[C@@H](NC(=O)CNC(=O)[C@H](CCC(=O)O)NC(=O)C(C)(C)NC(=O)[C@H](Cc1ccc(O)cc1)NC)[C@@H](C)O)[C@@H](C)CC)C(=O)N[C@@H](C)C(=O)N[C@@H](CC(C)C)C(=O)N[C@@H](CC(=O)O)C(=O)N[C@@H](CCCNC(=N)N)C(=O)N[C@@H](CCCCNC(=O)COCCOCCNC(=O)COCCOCCNC(=O)CC[C@H](NC(=O)CCCCCCCCCCCCCCCCC(=O)O)C(=O)O)C(=O)N[C@@H](Cc1c[nH]cn1)C(=O)N[C@@H](CCC(N)=O)C(=O)N[C@@H](CCC(N)=O)C(=O)N[C@@H](CC(N)=O)C(=O)N[C@@H](Cc1ccccc1)C(=O)N[C@H](C(=O)N[C@@H](CC(N)=O)C(=O)N[C@@H](Cc1c[nH]c2ccccc12)C(=O)N[C@@H](CC(C)C)C(=O)N[C@@H](CC(C)C)C(=O)N[C@@H](C)C(=O)N[C@@H](CCC(N)=O)C(=O)N[C@@H](CCCCN)C(=O)O)C(C)C [Compound 246] (H-[NMeY][Aib]EGTFISDYSIALDRK([AEEA-AEEA-γGlu-C18 diacid])HQQNFVNWLLAQK-OH; C-terminus assumed) | – | ≥ 700
CC[C@H](C)[C@H](NC(=O)[C@H](CO)NC(=O)[C@H](Cc1ccc(O)cc1)NC(=O)[C@H](CC(=O)O)NC(=O)[C@H](CO)NC(=O)[C@@H](NC(=O)[C@H](Cc1ccccc1)NC(=O)[C@@H](NC(=O)CNC(=O)[C@H](CCC(=O)O)NC(=O)C(C)(C)NC(=O)[C@H](Cc1ccc(O)cc1)NC)[C@@H](C)O)[C@@H](C)CC)C(=O)N[C@@H](C)C(=O)N[C@@H](CC(C)C)C(=O)N[C@@H](CC(=O)O)C(=O)N[C@@H](CCCNC(=N)N)C(=O)N[C@H](C(=O)N[C@@H](Cc1c[nH]cn1)C(=O)N[C@@H](CCC(N)=O)C(=O)N[C@@H](CCCCNC(=O)COCCOCCNC(=O)COCCOCCNC(=O)CC[C@H](NC(=O)CCCCCCCCCCCCCCCCC(=O)O)C(=O)O)C(=O)N[C@@H](CC(N)=O)C(=O)N[C@@H](Cc1ccccc1)C(=O)N[C@H](C(=O)N[C@@H](CC(N)=O)C(=O)N[C@@H](Cc1c[nH]c2ccccc12)C(=O)N[C@@H](CC(C)C)C(=O)N[C@@H](CC(C)C)C(=O)N[C@@H](C)C(=O)N[C@@H](CCC(N)=O)C(=O)N[C@@H](CCCCN)C(=O)O)C(C)C)[C@@H](C)CC [Compound 247] (H-[NMeY][Aib]EGTFISDYSIALDRIHQK([AEEA-AEEA-γGlu-C18 diacid])NFVNWLLAQK-OH; C-terminus assumed) | – | ≥ 9900
CC[C@H](C)[C@H](NC(=O)[C@H](CO)NC(=O)[C@H](Cc1ccc(O)cc1)NC(=O)[C@H](CC(=O)O)NC(=O)[C@H](CO)NC(=O)[C@@H](NC(=O)[C@H](Cc1ccccc1)NC(=O)[C@@H](NC(=O)CNC(=O)[C@H](CCC(=O)O)NC(=O)C(C)(C)NC(=O)[C@H](Cc1ccc(O)cc1)NC)[C@@H](C)O)[C@@H](C)CC)C(=O)N[C@@H](C)C(=O)N[C@@H](CC(C)C)C(=O)N[C@@H](CC(=O)O)C(=O)N[C@@H](CCCNC(=N)N)C(=O)N[C@H](C(=O)N[C@@H](Cc1c[nH]cn1)C(=O)N[C@@H](CCC(N)=O)C(=O)NC(C)(C)C(=O)N[C@@H](CC(N)=O)C(=O)N[C@@H](Cc1ccccc1)C(=O)N[C@H](C(=O)N[C@@H](CC(N)=O)C(=O)N[C@@H](Cc1c[nH]c2ccccc12)C(=O)N[C@@H](CC(C)C)C(=O)N[C@@H](CC(C)C)C(=O)N[C@@H](C)C(=O)N[C@@H](CCC(N)=O)C(=O)N[C@@H](CCCCNC(=O)COCCOCCNC(=O)COCCOCCNC(=O)CC[C@H](NC(=O)CCCCCCCCCCCCCCCCC(=O)O)C(=O)O)C(=O)O)C(C)C)[C@@H](C)CC [Compound 248] (H-[NMeY][Aib]EGTFISDYSIALDRIHQ[Aib]NFVNWLLAQK([AEEA-AEEA-γGlu-C18 diacid])-OH; C-terminus assumed) | – | ≥ 6800
